# System: SARS-CoV-2 strain USA-WA1/2020
# Assay: microbe, parasite or virus in culture
# Assay type: cell-based
# Conditions: Severe acute respiratory syndrome coronavirus 2, HeLa-ACE2, 24 h, HeLa-ACE2 cells, SARS-CoV-2 infection, 24 h; class symbols; read-out: EC50, uM (Hela)
row,SMILES,EC50
1,"CC(C)C[C@H](NC(=O)c1cc2cc(F)ccc2[nH]1)C(=O)N[C@@H](C[C@@H]1CCNC1=O)C(=O)COc1c(F)c(F)cc(F)c1F [Compound 16, 5-fluoro-N-((S)-4-methyl-1-oxo-1-(((S)-3-oxo-1-((S)-2-oxopyrrolidin-3-yl)-4-(2,3,5,6-tetrafluorophenoxy)butan-2-yl)amino)pentan-2-yl)-1H-indole-2-carboxamide]",0.05 to 0.2 µM
2,"CC[C@@H](O)C(=O)N[C@H](CC1(C)CC1)C(=O)N[C@@H](C[C@@H]1CCNC1=O)C(=O)COC(F)(F)F [Compound 375, (R)-2-hydroxy-N-((R)-3-(l-methylcyclopropyl)-1-oxo-1-(((S)-3-oxo-l-((S)-2-oxopyrrolidin-3-yl)-4-(trifluoromethoxy)butan-2-yl)amino)propan-2-yl)butanamide]",0.05 to 0.2 µM
3,CC(C)C[C@H](NC(=O)C(=O)Nc1ccccc1C(F)(F)F)C(=O)N[C@@H](C[C@@H]1CCNC1=O)C(=O)COc1c(F)c(F)cc(F)c1F [Compound 32],< 0.05 µM
4,"CC(C)C[C@H](NC(=O)C(=O)NC1(C)CC1)C(=O)N[C@@H](C[C@@H]1CCNC1=O)C(=O)COC(F)(F)F [Compound 217, N1-((S)-4-methyl-1-oxo-1-(((S)-3-oxo-1-((S)-2-oxopyrrolidin-3-yl)-4-(trifluoromethoxy)butan-2-yl)amino)pentan-2-yl)-N2-(1-methylcyclopropyl)-oxalamide]",< 0.05 µM
5,"CC(C)C[C@H](NC(=O)C(=O)NC(C)(C)C(F)(F)F)C(=O)N[C@@H](C[C@@H]1CCNC1=O)C(=O)COC(F)(F)F [Compound 211, N1-((S)-4-methyl-1-oxo-1-(((S)-3-oxo-1-((S)-2-oxopyrrolidin-3-yl)-4-(trifluoromethoxy)butan-2-yl)amino)pentan-2-yl)-N2-(1,1,1-trifluoro-2-methylpropan-2-yl)oxalamide]",< 0.05 µM
6,"CC(C)(F)C[C@H](NC(=O)c1cc2cc(F)ccc2[nH]1)C(=O)N[C@@H](C[C@@H]1CCNC1=O)C(=O)COc1c(F)c(F)cc(F)c1F [Compound 18, 5-fluoro-N-((S)-4-fluoro-4-methyl-1-oxo-1-(((S)-3-oxo-1-((S)-2-oxopyrrolidin-3-yl)-4-(2,3,5,6-tetrafluorophenoxy)butan-2-yl)amino)pentan-2-yl)-1H-indole-2-carboxamide]",0.5 to 1 µM
7,"O=C(N[C@@H](Cc1ccc(C(F)(F)F)cc1)C(=O)N[C@@H](C[C@@H]1CCNC1=O)C(=O)COc1c(F)c(F)cc(F)c1F)c1cc2cc(F)ccc2[nH]1 [Compound 17, 5-fluoro-N-((S)-1-oxo-1-(((S)-3-oxo-1-((S)-2-oxopyrrolidin-3-yl)-4-(2,3,5,6-tetrafluorophenoxy)butan-2-yl)amino)-3-(4-(tri-fluoromethyl)phenyl)-propan-2-yl)-1H-indole-2-carboxamide]",0.2 to 0.5 µM
8,"CC[C@@H](OC(F)(F)F)C(=O)N1C[C@H]2[C@@H]([C@H]1C(=O)N[C@@H](C[C@@H]1CCNC1=O)C(=O)COC(F)(F)F)C2(C)C [Compound 335, (1R,2S,5S)-6,6-dimethyl-N-((S)-3-oxo-1-((S)-2-oxopyrrolidin-3-yl)-4-(trifluoromethoxy)butan-2-yl)-3-((R)-2-(trifluoromethoxy)butanoyl)-3-azabicyclo[3.1.0]-hexane-2-carboxamide]",< 0.05 µM
9,"CC(C)(C)c1ccccc1NC(=O)C(=O)N[C@@H](CC1CCCCC1)C(=O)N[C@@H](C[C@@H]1CCNC1=O)C(=O)COc1c(F)c(F)cc(F)c1F [Compound 117, Nl-(2-(tert-butyl)phenyl)-N2-((S)-3-cyclohexyl-1-oxo-1-(((S)-3-oxo-1-((S)-2-oxopyrrolidin-3-yl)-4-(2,3,5,6-tetrafluorophenoxy)butan-2-yl)amino)propan-2-yl)oxalamide]",< 0.05 µM
10,"CC(C)C[C@H](NC(=O)C(=O)NC(C)(C)C(F)F)C(=O)N[C@@H](C[C@@H]1CCNC1=O)C(=O)COC(F)(F)F [Compound 246, N1-(1,1-difluoro-2-methylpropan-2-yl)-N2-((S)-4-methyl-1-oxo-1-(((S)-3-oxo-1-((S)-2-oxopyrrolidin-3-yl)-4-(trifluoromethoxy)butan-2-yl)amino)pentan-2-yl)oxalamide]",< 0.05 µM
11,"COc1ccccc1-c1cnc(C(=O)N[C@@H](CC(C)C)C(=O)N[C@@H](C[C@@H]2CCNC2=O)C(=O)COC(F)(F)F)[nH]1 [Compound 210, 5-(2-methoxyphenyl)-N-((S)-4-methyl-1-oxo-1-(((S)-3-oxo-1-((S)-2-oxopyrrolidin-3-yl)-4-(trifluoromethoxy)butan-2-yl)amino)pentan-2-yl)-1H-imidazole-2-carboxamide]",< 0.05 µM
12,"CC(C)C[C@H](NC(=O)C12CC(C(F)(F)F)(CO1)C2)C(=O)N[C@@H](C[C@@H]1CCNC1=O)C(=O)COC(F)(F)F [Compound 316, N-((S)-4-methyl-1-oxo-1-(((S)-3-oxo-1-((S)-2-oxopyrrolidin-3-yl)-4-(trifluoromethoxy)butan-2-yl)amino)pentan-2-yl)-4-(trifluoromethyl)-2-oxabicyclo-[2.1.1]hexane-1-carboxamide]",< 0.05 µM
13,"CC(C)C[C@H](NC(=O)c1cn2ccccc2n1)C(=O)N[C@@H](C[C@@H]1CCNC1=O)C(=O)COC(F)(F)F [Compound 202, N-((S)-4-methyl-1-oxo-1-(((S)-3-oxo-1-((S)-2-oxopyrrolidin-3-yl)-4-(trifluoromethoxy)butan-2-yl)amino)pentan-2-yl)imidazo[1,2-a]pyridine-2-carboxamide]",0.05 to 0.2 µM

# Same assay, conditions: Severe acute respiratory syndrome coronavirus 2, HeLa-ACE2, 24 h, HeLa-ACE2 cells, SARS-CoV-2 infection, 24 h; read-out: EC50, uM (Hela)
row,SMILES,EC50
1,"COc1ccc(/C=C/C[C@@H](O)C(=O)N2CC3(CC3)C[C@H]2C(=O)N[C@@H](C[C@@H]2CCNC2=O)C(=O)COC(F)(F)F)cc1 [Compound 666, (S)-5-((R,E)-2-hydroxy-5-(4-methoxyphenyl)pent-4-enoyl)-N-((S)-3-oxo-1-((S)-2-oxopyrrolidin-3-yl)-4-(trifluoromethoxy)butan-2-yl)-5-azaspiro[2.4]heptane-6-carboxamide]",0.05 to 0.2 µM
2,"O=C1NCC[C@H]1C[C@H](NC(=O)[C@@H]1CC2(CC2)CN1C(=O)[C@H](O)CC(C(F)(F)F)C(F)(F)F)C(=O)COC(F)(F)F [Compound 744, (S)-N-((S)-3-oxo-1-((S)-2-oxopyrrolidin-3-yl)-4-(trifluoromethoxy)butan-2-yl)-5-((R)-5,5,5-trifluoro-2-hydroxy-4-(trifluoromethyl)pentanoyl)-5-azaspiro[2.4]heptane-6-carboxamide]",< 0.05 µM
3,"CC(C)(C(=O)N1CC2(CC2)C[C@H]1C(=O)N[C@@H](C[C@@H]1CCNC1=O)C(=O)COC(F)(F)F)c1cccc(C(F)(F)F)c1 [Compound 456, (S)-5-(2-methyl-2-(3-(trifluoromethyl)-phenyl)propanoyl)-N-((S)-3-oxo-1-((S)-2-oxopyrrolidin-3-yl)-4-(trifluoromethoxy)butan-2-yl)-5-azaspiro[2.4]heptane-6-carboxamide]",< 0.05 µM
4,"CC(C)(C)NC(=O)C(=O)N1CC2(CC2)C[C@H]1C(=O)N[C@@H](C[C@@H]1CCNC1=O)C(=O)COC(F)(F)F [Compound 502, (S)-5-(2-(tert-butylamino)-2-oxoacetyl)-N-((S)-3-oxo-1-((S)-2-oxopyrrolidin-3-yl)-4-(trifluoromethoxy)butan-2-yl)-5-azaspiro[2.4]-heptane-6-carboxamide]",< 0.05 µM
5,"O=C1NCC[C@H]1C[C@H](NC(=O)[C@@H]1CC2(CC2)CN1C(=O)CNS(=O)(=O)Nc1ccccc1)C(=O)COC(F)(F)F [Compound 669, (S)-N-((S)-3-oxo-1-((S)-2-oxopyrrolidin-3-yl)-4-(trifluoromethoxy)butan-2-yl)-5-((N-phenylsulfamoyl)glycyl)-5-azaspiro[2.4]heptane-6-carboxamide]",0.05 to 0.2 µM
6,"CC(C)(C)NC(=O)C(=O)N[C@@H](CC1CC1)C(=O)N[C@@H](C[C@@H]1CCNC1=O)C(=O)COC(F)(F)F [Compound 503, N1-(tert-butyl)-N2-((S)-3-cyclopropyl-1-oxo-1-(((S)-3-oxo-1-((S)-2-oxopyrrolidin-3-yl)-4-(trifluoromethoxy)butan-2-yl)amino)propan-2-yl)oxalamide]",< 0.05 µM
7,"CCC(=O)N1CC2(CC2)C[C@H]1C(=O)N[C@@H](C[C@@H]1CCNC1=O)C(=O)COC(F)(F)F [Compound 688, (S)-N-((S)-3-oxo-1-((S)-2-oxopyrrolidin-3-yl)-4-(trifluoromethoxy)butan-2-yl)-5-propionyl-5-azaspiro[2.4]heptane-6-carboxamide]",0.05 to 0.2 µM
8,"CNS(=O)(=O)NCC(=O)N1CC2(CC2)C[C@H]1C(=O)N[C@@H](C[C@@H]1CCNC1=O)C(=O)COC(F)(F)F [Compound 691, (S)-5-((N-methylsulfamoyl)glycyl)-N-((S)-3-oxo-1-((S)-2-oxopyrrolidin-3-yl)-4-(trifluoromethoxy)butan-2-yl)-5-azaspiro[2.4]heptane-6-carboxamide]",0.5 to 1 µM
9,"O=C1NCC[C@H]1C[C@H](NC(=O)[C@@H]1[C@H]2CCC[C@H]2CN1C(=O)c1noc2cc(F)ccc12)C(=O)COC(F)(F)F [Compound 611, (1S,3aR,6aS)-2-(6-fluorobenzo[d]isoxazole-3-carbonyl)-N-((S)-3-oxo-1-((S)-2-oxopyrrolidin-3-yl)-4-(trifluoromethoxy)butan-2-yl)octahydrocyclopenta[c]pyrrole-1-carboxamide]",< 0.05 µM

# Same assay, conditions: Severe acute respiratory syndrome coronavirus 2, HeLa-ACE2, 24 h; read-out: EC50, uM (Hela)
row,SMILES,EC50
1,"CC(C)C[C@H](NC(=O)C(=O)Nc1ccccc1F)C(=O)N[C@@H](C[C@@H]1CCNC1=O)C(=O)COP(C)(=O)c1ccccc1 (stereo partly drawn) [Compound 651, (S)-3-((S)-2-(2-((2-fluorophenyl)amino)-2-oxoacetamido)-4-methylpentanamido)-2-oxo-4-((S)-2-oxopyrrolidin-3-yl)butyl methyl(phenyl)phosphinate]",0.05 to 0.2 µM
2,"CC(C)C[C@H](NC(=O)C(=O)Nc1ccccc1)C(=O)N[C@@H](C[C@@H]1CCNC1=O)C(=O)COP(=O)(c1ccccc1)c1ccccc1 [Compound 73, (S)-3-((S)-4-methyl-2-(2-oxo-2-(phenylamino)acetamido)-pentanamido)-2-oxo-4-((S)-2-oxopyrrolidin-3-yl)butyl-diphenylphosphinate]",0.05 to 0.2 µM

# Reference: patent US11708348B2, “Protease inhibitors for treatment of coronavirus infections” (The Scripps Research Institute, priority 2021, dated 2023)
